“And” between values parts separate entries of the source, which are not always exact repeats. Identical values can stand only once.
Molecular target: T1, 1-acyl-sn-glycerol-3-phosphate acyltransferase beta (Homo sapiens, UniProt O15120)
T1 sequence (O15120 whole entry): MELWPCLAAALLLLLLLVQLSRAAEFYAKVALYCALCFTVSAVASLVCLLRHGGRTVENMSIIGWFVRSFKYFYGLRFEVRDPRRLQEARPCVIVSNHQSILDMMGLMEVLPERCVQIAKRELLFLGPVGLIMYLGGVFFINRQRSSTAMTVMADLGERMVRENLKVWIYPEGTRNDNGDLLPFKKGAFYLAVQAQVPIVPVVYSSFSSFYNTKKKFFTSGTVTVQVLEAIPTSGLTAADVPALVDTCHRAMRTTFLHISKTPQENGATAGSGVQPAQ
Test: Inhibitory activity against Lysophosphatidic acid acyltransferase-beta enzyme over-expressed in Sf9 insect cell membrane

Compound | IC50
CCOc1ccc(Cl)cc1-c1nc(N)nc(Nc2ccc(Cl)cc2)n1 | 260 nM
COc1ccc(Cl)cc1-c1cc(Nc2ccc(C)cc2)cc(N)n1 | > 40000 nM
COc1ccc(Cl)cc1-c1nc(N)nc(Nc2ccc(Cl)cc2)n1 | 70 nM and 45 nM
COc1ccc(Cl)cc1-c1cc(N)nc(Nc2ccc(Cl)cc2)n1 | 2050 nM

Source: ChEMBL document CHEMBL1140395, “Diamino-C,N-diarylpyridine positional isomers as inhibitors of lysophosphatidic acid acyltransferase-beta” (Bioorg Med Chem Lett, 2005)
